Test results reported in ChEMBL document CHEMBL3351853, “Discovery of small molecular inhibitors targeting HIV-1 gp120-CD4 interaction drived from BMS-378806” (Eur J Med Chem, 2014).

Assay: Inhibition of HIV-1 gp120/CD4 interaction

## C[C@@H]1CN(C(=O)c2ccccc2)CCN1C(=O)C(=O)c1c[nH]c2ccccc12
  EC50: 4 nM
